Source: US20120122727A1, “IN VITRO METHOD FOR PREDICTING WHETHER A COMPOUND IS GENOTOXIC IN VIVO” (priority 2009, published 2012)

Experiments:
[1] = system: primary mouse hepatocytes; experiment: Gene expression in primary mouse hepatocytes, GTX vs non-GTX (four-gene classifier, 24 h)
Experimental: Hepatocyte cells were incubated and exposed to a compound for 24 h before being harvested for RNA isolation.
The results of the gene expression analysis may then be fed into a statistical software package such as R, Splus, or Microsoft Excel. […] If none or only one of these criteria were met, no point was scored.
For each of the four genes mentioned in the table (1700007K13RIK, GAS2L3, SPC25, DDIT4L), a statistical comparison was made between the normalized expression data for these genes. […] If none or only one of these criteria were met, no point was scored.
For each compound, the sum of the scores for four genes is taken. If this score is 0, a compound can be believed not to be genotoxic. If this score is 1, 2, 3 or 4, a compound is genotoxic.
If none or only one of these criteria were met, no point was scored.

[2] = system: primary mouse hepatocytes; experiment: Gene expression (Affymetrix Mouse Genome 430 2.0) in primary mouse hepatocytes, true vs false GTX, 24 h and 48 h; conditions: log2, corrected for vehicle control
[3] = 24 h exposure, average of four replicates
[4] = log 2 ratio, 24 h exposure, concentration per Table 4

For `CN(C)N=O` [DMN, Dimethylnitrosamine], the “score 1700007K13RIK” value [1, 3] was 1, the “score DDIT4L” value [1, 3] was 0 and the “score GAS2L3” value [1, 3] was 0. The “score SPC25” value [1, 3] was 0, the “Ratios of gene expression treated/untreated 1700007K13RIK” value [1, 4] was 2.141 and the “Ratios of gene expression treated/untreated DDIT4L” value [1, 4] was 0.7662. The “Ratios of gene expression treated/untreated GAS2L3” value [1, 4] was 0.2166, the “Ratios of gene expression treated/untreated SPC25” value [1, 4] was 0.8368 and the Total score ([1]; sum of scores for four genes, 0 = not genotoxic, 1, 2, 3 or 4 = genotoxic) was 1. The “Gene expression data AF000969 (Cadps2)” value ([2]; 24 h average) was −1.039, the “Gene expression data AF022072 (Grb10)” value ([2]; 24 h average) was −1.913 and the “Gene expression data AF065917 (Lif)” value ([2]; 24 h average) was 1.804. For the same compound, the “Gene expression data AF204959 (Cyp3a25 /// LOC622249)” value ([2]; 24 h average) was −0.2993, the “Gene expression data AF297615 (Ggta1)” value ([2]; 24 h average) was 3.2188 and the “Gene expression data AI594683 (Dmn)” value ([2]; 24 h average) was 3.164. For the same compound, the “Gene expression data AI596632 (Ptprg /// LOC632664)” value ([2]; 24 h average) was −1.9, the “Gene expression data AI987929 (Ndrg1)” value ([2]; 24 h average) was −0.9838 and the “Gene expression data AK004419 (Fbxl17)” value ([2]; 24 h average) was −1.22. The “Gene expression data AK005731 (1700007K13Rik)” value ([2]; 24 h average) was 5.486, the “Gene expression data AK007766 (1810044A24Rik)” value ([2]; 24 h average) was −0.8706 and the “Gene expression data AK007854 (1810053B23Rik)” value ([2]; 24 h average) was 2.173. The “Gene expression data AK009736 (Gpr137b /// LOC664862 /// LOC673335)” value ([2]; 24 h average) was −0.8367, the “Gene expression data AK010447 (Smyd3)” value ([2]; 24 h average) was −1.0358 and the “Gene expression data AK014608 (4632434l11Rik)” value ([2]; 24 h average) was 1.756. For the same compound, the “Gene expression data AK019979 (2610528E23Rik)” value ([2]; 24 h average) was −1.324, the “Gene expression data AV095209 (Mthfd1l)” value ([2]; 24 h average) was −1.007 and the “Gene expression data AV141095 (1110033M05Rik)” value ([2]; 24 h average) was −1.375. For the same compound, the “Gene expression data AV173571 (1700106N22Rik)” value ([2]; 24 h average) was −1.0106, the “Gene expression data AV219418 (Ldhb)” value ([2]; 24 h average) was 2.743 and the “Gene expression data AV223474 (Zdhhc14)” value ([2]; 24 h average) was −0.9067. The “Gene expression data AV298304 (Homez)” value ([2]; 24 h average) was 1.8715, the “Gene expression data AV327248 (Zfp365 /// LOC674611)” value ([2]; 24 h average) was 4.114 and the “Gene expression data AV377066 (9130221J18Rik)” value ([2]; 24 h average) was 0.9605. For the same compound, the “Gene expression data AW240761 (Tbc1d5)” value ([2]; 24 h average) was −1.191, the “Gene expression data AW543460 (Pard3)” value ([2]; 24 h average) was −1.4802 and the “Gene expression data AW543723” value ([2]; 24 h average) was 1.95. The “Gene expression data AW986246 (Maoa)” value ([2]; 24 h average) was −0.372, the “Gene expression data BB027848 (4732466D17Rik)” value ([2]; 24 h average) was 1.126 and the “Gene expression data BB043558 (9230114K14Rik)” value ([2]; 24 h average) was 2.407. For the same compound, the “Gene expression data BB275142 (AW456874)” value ([2]; 24 h average) was 1.902, the “Gene expression data BB308836 (Ppm1l)” value ([2]; 24 h average) was −0.9881 and the “Gene expression data BB318221 (Zdhhc14)” value ([2]; 24 h average) was −1.041. For the same compound, the “Gene expression data BB463610 (4632434l11Rik)” value ([2]; 24 h average) was 1.9965, the “Gene expression data BB526605 (Mipol1)” value ([2]; 24 h average) was −1.5816 and the “Gene expression data BB770528 (Rai2)” value ([2]; 24 h average) was 2.8. The “Gene expression data BB821363 (Scfd2)” value ([2]; 24 h average) was −1.143, the “Gene expression data BC004827 (Psat1)” value ([2]; 24 h average) was −1.518 and the “Gene expression data BC008626 (Icam1)” value ([2]; 24 h average) was 2.035. The “Gene expression data BC010462 (BC010462)” value ([2]; 24 h average) was 0.7519, the “Gene expression data BC012247 (Dcxr)” value ([2]; 24 h average) was 1.6567 and the “Gene expression data BC012260 (Psmf1)” value ([2]; 24 h average) was 1.0548. The “Gene expression data BC015270 (Hist2h3c2)” value ([2]; 24 h average) was 0.9816, the “Gene expression data BC016073 (Cdkal1)” value ([2]; 24 h average) was −1.243 and the “Gene expression data BC016265 (Ube2e2)” value ([2]; 24 h average) was −1.287. The “Gene expression data BC019882 (Acaa1b)” value ([2]; 24 h average) was 2.057, the “Gene expression data BC025501 (Aaas)” value ([2]; 24 h average) was 1.6386 and the “Gene expression data BC025837 (Sbk1)” value ([2]; 24 h average) was 0.9087. The “Gene expression data BC025915 (Cova1)” value ([2]; 24 h average) was −0.9502, the “Gene expression data BC026422 (Tgm1)” value ([2]; 24 h average) was 2.22 and the “Gene expression data BF719766 (Thyn1)” value ([2]; 24 h average) was 1.824. For the same compound, the “Gene expression data BG065754 (Ccng1)” value ([2]; 24 h average) was 0.9587, the “Gene expression data BG066903 (Kif16b)” value ([2]; 24 h average) was −0.8682 and the “Gene expression data BG069873 (Gnb1l)” value ([2]; 24 h average) was 2.2987. The “Gene expression data BG070887 (Gtdc1)” value ([2]; 24 h average) was −1.112, the “Gene expression data BG076151 (Ppm1d)” value ([2]; 24 h average) was 1.946 and the “Gene expression data BG261907 (Large)” value ([2]; 24 h average) was −1.3871. The “Gene expression data BI651416 (Cdc42bpg)” value ([2]; 24 h average) was 1.7218, the “Gene expression data BI660702 (Ell3)” value ([2]; 24 h average) was 2.514 and the “Gene expression data BM198879 (Ercc5)” value ([2]; 24 h average) was 1.2634. For the same compound, the “Gene expression data BM230508 (A030007D23Rik)” value ([2]; 24 h average) was 2.304, the “Gene expression data NM_007987 (Fas)” value ([2]; 24 h average) was 2.421 and the “Gene expression data NM_008522 (Ltf)” value ([2]; 24 h average) was 3.616. For the same compound, the “Gene expression data NM_008576 (Abcc1)” value ([2]; 24 h average) was −0.9295, the “Gene expression data NM_011176 (St14)” value ([2]; 24 h average) was 1.574 and the “Gene expression data NM_011316 (Saa4)” value ([2]; 24 h average) was 2.1585. For the same compound, the “Gene expression data NM_012006 (Acot1)” value ([2]; 24 h average) was 2.033, the “Gene expression data NM_013866 (Zfp385)” value ([2]; 24 h average) was 2.361 and the “Gene expression data NM_018770 (Igsf4a)” value ([2]; 24 h average) was −0.8412. For the same compound, the “Gene expression data NM_021451 (Pmaip1)” value ([2]; 24 h average) was 3.698, the “Gene expression data NM_025770 (Atg10)” value ([2]; 24 h average) was −0.5113 and the “Gene expression data NM_028803 (Gbe1)” value ([2]; 24 h average) was −1.103. For the same compound, the “Gene expression data NM_030697 (Ankrd47)” value ([2]; 24 h average) was 3.211, the “Gene expression data NM_053168 (Trim11)” value ([2]; 24 h average) was 1.0583 and the “Gene expression data NM_134188 (Acot2)” value ([2]; 24 h average) was −0.5001. For the same compound, the “Gene expression data Y15910 (Diap2)” value ([2]; 24 h average) was −1.636, the “Gene expression AA561726 average” value ([2]; 48 h) was −0.3534 and the “Gene expression AF000969 average” value ([2]; 48 h) was −1.114. The “Gene expression AF022072 average” value ([2]; 48 h) was −1.2797, the “Gene expression AF033112 average” value ([2]; 48 h) was 1.817 and the “Gene expression AF055573 average” value ([2]; 48 h) was −1.913. For the same compound, the “Gene expression AF069954 average” value ([2]; 48 h) was 1.631.
